Measured values published in patent US20050038047A1, “Azaquinazoline derivatives” (priority 2003, published 2005).

Target: T1, rat mGluR1a receptor (Rattus norvegicus, UniProt P23385)
T1 construct: expressed in transfected cells; host or cells: Chinese Hamster Ovary cells (CHO-1a), stably transfected
Test: mGluR1 assay: antagonism of glutamate-evoked calcium internalisation in CHO-1a cells (FLIPr)
Format: cell-based
Settings: CHO cells stably transfected with rat mGluR1a; 40 μM glutamate challenge; IC50 values converted to modified Ki values; read-out: binding affinities (mGluR1 assay)
Protocol: The ability of compounds of formula (I) to antagonise glutamate-evoked increases in calcium internalisation in an mGluR1 expressing cell line may be measured using the assay described below.
Chinese Hamster Ovary cells stably-transfected with the rat mGluR1a receptor (CHO-1a) were used in the assay. CHO-1a cells were seeded onto shallow 96 well plates and assayed at a confluency of 80-90%. Cells were loaded with Fluo-3-AM dye (8.8 μM final concentration; excitation 488 nm, emission 530 nm) in the presence of probenecid (2.5 mM), for 45-90 minutes at 37° C., after which time excess dye was removed by washing. The cell plate was then loaded onto a fluorometric imaging plate reader (FLIPr, Molecular Devices). Baseline readings were measured for 30 seconds. Test compounds were added by the FLIPr and allowed to equilibrate for 5 minutes before the addition of a 40 μM glutamate challenge (this was the approximate ED90 for glutamate against the receptor expressed in these cells). Readings were taken for a further 2 minutes. Measurements were made of the area of peak obtained in response to the glutamate addition and inhibition curves were constructed. Glutamate dose-response curves were included on each experimental day to allow IC50 values to be converted to modified Ki values.

T1 sequence (P23385 19-1199): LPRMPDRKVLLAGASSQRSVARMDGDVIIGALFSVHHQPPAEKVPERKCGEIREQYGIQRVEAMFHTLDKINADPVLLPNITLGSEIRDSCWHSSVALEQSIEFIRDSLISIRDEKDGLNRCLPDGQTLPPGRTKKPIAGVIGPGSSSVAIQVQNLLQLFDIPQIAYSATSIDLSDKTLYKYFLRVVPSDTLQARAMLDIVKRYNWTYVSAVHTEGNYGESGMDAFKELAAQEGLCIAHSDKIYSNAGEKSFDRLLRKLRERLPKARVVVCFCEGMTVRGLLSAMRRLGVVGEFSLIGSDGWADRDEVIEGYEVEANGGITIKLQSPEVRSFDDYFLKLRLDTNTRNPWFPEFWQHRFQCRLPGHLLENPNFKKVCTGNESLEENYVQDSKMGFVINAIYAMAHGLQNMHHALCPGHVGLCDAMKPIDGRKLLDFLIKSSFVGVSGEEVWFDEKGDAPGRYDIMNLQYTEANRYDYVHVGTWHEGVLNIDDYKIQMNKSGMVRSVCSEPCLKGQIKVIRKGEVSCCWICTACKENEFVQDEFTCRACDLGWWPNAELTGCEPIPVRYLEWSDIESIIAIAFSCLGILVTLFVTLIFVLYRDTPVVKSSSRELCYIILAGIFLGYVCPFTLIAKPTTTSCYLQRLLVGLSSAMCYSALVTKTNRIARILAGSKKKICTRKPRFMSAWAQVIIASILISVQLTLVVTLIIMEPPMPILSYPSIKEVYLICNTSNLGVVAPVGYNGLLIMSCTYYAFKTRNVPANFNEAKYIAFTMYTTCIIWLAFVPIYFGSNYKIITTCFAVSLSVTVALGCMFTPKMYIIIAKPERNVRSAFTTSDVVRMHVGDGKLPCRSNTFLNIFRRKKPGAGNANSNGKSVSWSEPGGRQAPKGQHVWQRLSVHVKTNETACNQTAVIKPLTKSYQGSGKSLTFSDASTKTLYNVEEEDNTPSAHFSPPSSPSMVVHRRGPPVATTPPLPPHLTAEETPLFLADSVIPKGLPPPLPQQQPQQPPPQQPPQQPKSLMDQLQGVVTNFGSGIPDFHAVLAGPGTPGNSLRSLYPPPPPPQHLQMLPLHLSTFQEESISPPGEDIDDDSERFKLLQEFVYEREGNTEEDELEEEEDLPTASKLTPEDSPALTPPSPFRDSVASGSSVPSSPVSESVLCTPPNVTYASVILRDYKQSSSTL

Ki [nM] | SMILES
3 | OC1CCN(c2cc3c(NC4CCCCCC4)ncnc3cn2)CC1 [Example 1, 1-(4-Cycloheptylamino-pyrido[3,4-d]pyrimidin-6-yl)-piperidin-4-ol]
2 | OCCCNc1cc2c(NC3CCCCCC3)ncnc2cn1 [Example 3]
